Target: T1, microID (BioID2 [2-171]); with L41P = ultraID (Aquifex aeolicus, UniProt O66837, R40G/L41P)
T1 construct: gene birA; pET22b, E. coli BL21(DE3), IMAC purified
Assay: ELISA-based biotinylation assay, streptavidin-alkaline phosphatase
Format: biochemical
Conditions: 50 µM biotin, 2.5 mM ATP, 5 mM MgCl2, pH 7.5, 37 °C, 10 min; acceptor human serum albumin

T1 sequence (O66837 entry or part of it R40G/L41P): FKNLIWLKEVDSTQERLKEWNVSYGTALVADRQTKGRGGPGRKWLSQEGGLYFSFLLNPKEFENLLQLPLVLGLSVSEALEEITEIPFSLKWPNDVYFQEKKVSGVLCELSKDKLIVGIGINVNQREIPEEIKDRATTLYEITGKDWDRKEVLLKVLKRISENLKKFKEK

In the case of `O=C(O)CCCC[C@@H]1SC[C@@H]2NC(=O)N[C@@H]21` [biotin], the “ELISA-based biotinylation assay, streptavidin-alkaline phosphatase” value is reported as “combined R40G/L41P mutations showed the highest activity of all tested variants”.
